Laboratory results taken from EP0061157A1, “2-Benzoylamino substituted benzylamine derivative and a process for preparation thereof” (Hokuriku Pharmaceutical Co.,Ltd, priority 1981, dated 1982).
Where a name gives a salt, the structure may show the parent alone. Marks after values point to notes of the source that are not given here.

Experiments:
[1] = system: acid glycoprotein in submucosal glandular cells of the trachea; test: Effect on the dissolution of acid glycoprotein in submucosal glandular cells of the trachea (isolated tracheal strips, AB/PAS staining); assay type: cell-based, dogs; details: for Ratio of Glandular Cells Containing Acid Glycoprotein to Total Glandular Cells (%): control 72.4; for EC50: Canis lupus familiaris, dose required for decreasing acid glycoprotein by 50%, calculated from Table III data, read-out: ED50 (the source's name); for Potency Ratio: from ED50, dose of reference drug 1 made 1
Procedure: Experiments were performed following the method of Yanaura et al. (Nippon Yakurigaku Zasshi, 77, 559 - 568 (1981)). Male mongrel dogs weighing 10 to 12 kg were anesthetized with sodium pentobarbital (30 mg/kg, i.v.). The trachea was quickly excised about 10 cm long and rapidly […] to a Hanks' solution (95% 02 - 5% CO2, 37 + 1° ). Connective tissues around were removed and the trachea was cut into strips about 2 cm long. The tracheal strips were preincubated for 30 minutes in Hanks' solution, and then drugs were added to the solution and the mixtures were further incubated for 30 minutes. The tracheal strips were then fixed with a 10% formaldehyde isotonic solution followed by dehydrating in a series of graded ethanol concentrations and paraffinembedding in a conventional manner. Sections 4 µm thick were cut with a Jung type microtome and stained with alcian blue (pH 2.5) - periodic acid Schiff (AB (pH 2.5)/PAS). The specimens were studied by the optical microscopic observation with the effects of drugs on the secretory activities of the tracheal secretory cells and on the dissolution of acid glycoprotein in submucosal glandular cells of the tracheal. As a tracheal mucus dissolution activity, an effect on the dissolution of acid glycoprotein in submucosal glandular cells was observed. In double staining with AB (pH 2.5)/PAS, submucosal glandular cells containing much acid glycoprotein were strongly stained blue because of the reaction with AB. When acid glycoprotein in glandular cells is dissolved and its acid groups were lost, it is stained with PAS instead of AB. Consequently, submucosal glandular cells turned to red from blue in color. The ratio of blue glandular cells to total glandular cells was observed, and the effect on the dissolution of acid glycoprotein was estimated by decrease in the ratio. Based on the above data, a dose of each of the compounds tested required for decreasing acid glycoprotein by 50% (ED50) was calculated. Further, a potency ratio was determined when the dose of reference drug 1 was made 1.

tracheal secretory cells = test: Effect on the secretory activity of the tracheal secretory cells (isolated tracheal strips, AB/PAS staining, A^IWR); assay type: cell-based, dogs; details: for Acinar Inner Diameter of Submucosal Gland to Wall Ratio (A^IWR): dog tracheal strips incubated 30 minutes, control 5.0 x 10^-2; for activation at 10 µM / activation at 1 µM / activation at 0.1 µM: Canis lupus familiaris, 0.5 h, relative to control, read-out: Increasing Rate in A^IWR (%)
Procedure: Experiments were performed following the method of Yanaura et al. (Nippon Yakurigaku Zasshi, 77, 559 - 568 (1981)). Male mongrel dogs weighing 10 to 12 kg were anesthetized with sodium pentobarbital (30 mg/kg, i.v.). The trachea was quickly excised about 10 cm long and rapidly […] to a Hanks' solution (95% 02 - 5% CO2, 37 + 1° ). Connective tissues around were removed and the trachea was cut into strips about 2 cm long. The tracheal strips were preincubated for 30 minutes in Hanks' solution, and then drugs were added to the solution and the mixtures were further incubated for 30 minutes. The tracheal strips were then fixed with a 10% formaldehyde isotonic solution followed by dehydrating in a series of graded ethanol concentrations and paraffinembedding in a conventional manner. Sections 4 µm thick were cut with a Jung type microtome and stained with alcian blue (pH 2.5) - periodic acid Schiff (AB (pH 2.5)/PAS). The specimens were studied by the optical microscopic observation with the effects of drugs on the secretory activities of the tracheal secretory cells and on the dissolution of acid glycoprotein in submucosal glandular cells of the tracheal. A thickness between basement membrance and cartilage (thickness of […]; wall is referred to as "W"), and acinar inner diameter of submucosal gland (A^I) were measured. Then, acinar inner diameter of submucosal gland to wall ratio (A^IWR) was calculated. Increase of A^IWR reflects enhancement of the secretory activity in submucosal gland. If test drug has a significant increase in A^IWR, it has a respiratory tract fluid (RTF) - increasing effect.

Acute toxicity test = details: mouse, in vivo, mice, Litchfield-Wilcoxon, dead animals within 7 days
Procedure: Male mice of ddy-strain weighing 20 to 25 g were used. Drugs were administered orally and intraperitoneally to 10 mice in each group. LD50 was calculated by the Litchfield-Wilcoxon method from dead animals within 7 days.

[2] = compared with reference drugs 1 and 2

| SMILES | Ratio of Glandular Cells Containing Acid Glycoprotein to Total Glandular Cells (%) ([1]; 1 x 10^-5 M) | Ratio of Glandular Cells Containing Acid Glycoprotein to Total Glandular Cells (%) ([1]; 1 x 10^-6 M) | Ratio of Glandular Cells Containing Acid Glycoprotein to Total Glandular Cells (%) ([1]; 1 x 10^-7 M) | EC50 [1] | mucolytic activity (dissolution of acid glycoprotein), times stronger than that of reference drugs 1 and 2 [1, 2] | Potency Ratio [1] | Acinar Inner Diameter of Submucosal Gland to Wall Ratio (A^IWR) (tracheal secretory cells; 1 x 10^-5M) | Acinar Inner Diameter of Submucosal Gland to Wall Ratio (A^IWR) (tracheal secretory cells; 1 x 10^-6M) | Acinar Inner Diameter of Submucosal Gland to Wall Ratio (A^IWR) (tracheal secretory cells; 1 x 10^-7M) | activation at 10 µM (tracheal secretory cells; 1 x 10^-5M) | activation at 1 µM (tracheal secretory cells; 1 x 10^-6M) | activation at 0.1 µM (tracheal secretory cells; 1 x 10^-7M) | enhancement in A^IWR, times as strong as that of reference drugs 1 and 2 (tracheal secretory cells; [2]) | LD50 at 168 h (Acute toxicity test; ip, I.P.) | LD50 at 168 h (Acute toxicity test; po, P.O.) |
| --- | --- | --- | --- | --- | --- | --- | --- | --- | --- | --- | --- | --- | --- | --- | --- |
| COc1cc(C(=O)Nc2c(Br)cc(Br)cc2CN(C)C2CCCCC2)ccc1O.Cl [Compound of This Invention, 2-(4-Hydroxy-3-methoxybenzoylamino)-3,5-dibromo-N-cyclohexyl-N-methylbenzylamine hydrochloride] | 10.6** % | 21.6** % | 42.0** % | 0.23 µM | 10 times | 10.87 | 7.3 x 10^-2** | 7.1 x 10^-2** | 6.1 x 10^-2* | 46% | 42% | 22% | about 10 times | > 4000 mg/kg | > 12000 mg/kg |
| COc1cc(C(=O)Nc2c(Br)cc(Br)cc2CN(C)C2CCCCC2)ccc1OC(C)=O [Reference Drug 1, 2-(4-Acetoxy-3-methoxybenzoylamino)-3.5-dibromo-N-cyclohexyl-N-methylbenzylamine hydrochloride] | 23.8** % | 46.8** % | 71.0% | 2.5 µM |  |  | 6.5 x 10^-2** | 6.2 x 10^-2* | 5.3 x 10^-2 | 30% | 24% | 6% |  | > 4000 mg/kg | > 12000 mg/kg |
| CN(Cc1cc(Br)cc(Br)c1N)C1CCCCC1.Cl [Reference Drug 2, 2-Amino-3,5-dibromo-N-cyclohexyl-N-methylbenzylamine hydrochloride] | 17.5** % | 30.0** % | 66.2% | 1.3 µM |  | 1.92 | 6.2 x 10^-2* | 5.6 x 10^-2 | 5.2 x 10^-2 | 24% | 12% | 4% |  | 2320 mg/kg | 9000 mg/kg |
